Values joined by “and” are separate entries in the source; they are usually repeats but may differ in a detail not shown here. Equal values may be shown once. Inconclusive results and toxic doses are left out.
Test system: BDF1 mice, P388 leukemia ip, median survival T/C
Assay: NCI In Vivo Anticancer Drug Screen. Data for tumor model P388 Leukemia (intraperitoneal) in B6D2F1 (BDF1) mice
Details: endpoint: median survival time, higher = longer survival
How it was run: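 Steps: implant the tumour, treat one group with compound and another with vehicle, record survival, then divide treated by control.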

[1] = dose: 100.0 mg/kg/injection, schedule: Q04DX003 (ip), vehicle: saline with Tween-80
[2] = dose: 200.0 mg/kg/injection, schedule: Q04DX003 (ip), vehicle: saline with Tween-80
[3] = dose: 400.0 mg/kg/injection, schedule: Q04DX003 (ip), vehicle: saline with Tween-80
[4] = dose: 50.0 mg/kg/injection, schedule: Q01DX009 (ip), vehicle: saline with Tween-80
[5] = dose: 100.0 mg/kg/injection, schedule: Q01DX009 (ip), vehicle: saline with Tween-80
[6] = dose: 200.0 mg/kg/injection, schedule: Q01DX009 (ip), vehicle: saline with Tween-80
[7] = dose: 25.0 mg/kg/injection, schedule: Q04DX003 (ip), vehicle: saline
[8] = dose: 50.0 mg/kg/injection, schedule: Q01DX009 (ip), vehicle: saline
[9] = dose: 100.0 mg/kg/injection, schedule: Q01DX009 (ip), vehicle: saline
[10] = dose: 100.0 mg/kg/injection, schedule: Q04DX003 (ip), vehicle: saline
[11] = dose: 200.0 mg/kg/injection, schedule: Q01DX009 (ip), vehicle: saline
[12] = dose: 200.0 mg/kg/injection, schedule: Q04DX003 (ip), vehicle: saline
[13] = dose: 100.0 mg/kg/injection, schedule: Q01DX009 (ip), vehicle: water
[14] = dose: 100.0 mg/kg/injection, schedule: Q04DX003 (ip), vehicle: water
[15] = dose: 25.0 mg/kg/injection, schedule: Q04DX003 (ip), vehicle: saline with Tween-80
[16] = dose: 50.0 mg/kg/injection, schedule: Q04DX003 (ip), vehicle: saline with Tween-80
[17] = dose: 400.0 mg/kg/injection, schedule: Q01DX009 (ip), vehicle: saline
[18] = dose: 400.0 mg/kg/injection, schedule: Q04DX003 (ip), vehicle: saline

CC(C)CCCC(C)C1CCC2C3CCC45CC4C(=O)CCC5(C)C3CCC12C (stereo unspecified)
T/C (dose: 100.0 mg/kg/injection, schedule: Q04DX003 (ip), vehicle: alcohol): 115 % of control
T/C (dose: 200.0 mg/kg/injection, schedule: Q04DX003 (ip), vehicle: alcohol): 100 % of control
T/C (dose: 400.0 mg/kg/injection, schedule: Q04DX003 (ip), vehicle: alcohol): 100 % of control

CCN1C=NNc2ccc(Cl)cc2C1=O
T/C [1]: 97 % of control
T/C [2]: 97 % of control
T/C [3]: 100 % of control

COC(=O)c1cc(=O)nc(NN=C2CCCCC2)s1
T/C (dose: 50.0 mg/kg/injection, schedule: Q01DX005 (ip), vehicle: saline with Tween-80): 99 % of control
T/C (dose: 100.0 mg/kg/injection, schedule: Q01DX005 (ip), vehicle: saline with Tween-80): 103 % of control

CC(=O)CC(C)=O.CC(=O)CC(C)=O.O=N[O-].O=N[O-].[Co]
T/C (dose: 25.0 mg/kg/injection, schedule: Q04DX002 (ip), vehicle: saline with Tween-80): 106 % of control
T/C (dose: 50.0 mg/kg/injection, schedule: Q04DX002 (ip), vehicle: saline with Tween-80): 109 % of control

N#CC1=C(N)CCC2(C1)c1ccccc1-c1ccccc12
T/C [4]: 103 % of control
T/C [5]: 88 % of control
T/C [6]: 96 % of control

CNc1n[n+](-c2ccccc2)no1
T/C (dose: 3.12 mg/kg/injection, schedule: Q01DX009 (ip), vehicle: saline): 115 % of control
T/C (dose: 6.25 mg/kg/injection, schedule: Q01DX009 (ip), vehicle: saline): 101 % of control and 120 % of control
T/C (dose: 6.25 mg/kg/injection, schedule: Q04DX003 (ip), vehicle: saline): 102 % of control
T/C (dose: 12.5 mg/kg/injection, schedule: Q04DX003 (ip), vehicle: saline): 96 % of control
T/C [7]: 104 % of control and 107 % of control

COC(=O)C1(C)CCC(c2ccc(OC)cc2)CC1=O (stereo unspecified)
T/C [8]: 86 % of control
T/C [9]: 100 % of control
T/C [10]: 100 % of control
T/C [11]: 109 % of control
T/C [12]: 103 % of control

CCCCCCCC(=O)NCCCC
T/C (dose: 100.0 mg/kg/injection, schedule: Q01DX001 (ip), vehicle: Klucel (hydroxypropylcellulose) (HPC)): 104 % of control
T/C (dose: 100.0 mg/kg/injection, schedule: Q04DX003 (ip), vehicle: Klucel (hydroxypropylcellulose) (HPC)): 91 % of control
T/C (dose: 200.0 mg/kg/injection, schedule: Q01DX001 (ip), vehicle: Klucel (hydroxypropylcellulose) (HPC)): 86 % of control
T/C (dose: 400.0 mg/kg/injection, schedule: Q01DX001 (ip), vehicle: Klucel (hydroxypropylcellulose) (HPC)): 104 % of control
T/C (dose: 400.0 mg/kg/injection, schedule: Q04DX003 (ip), vehicle: Klucel (hydroxypropylcellulose) (HPC)): 100 % of control

CCS(=O)(=O)c1ncc2cnccn12
T/C [13]: 92 % of control
T/C [14]: 95 % of control
T/C (dose: 200.0 mg/kg/injection, schedule: Q01DX009 (ip), vehicle: water): 105 % of control
T/C (dose: 200.0 mg/kg/injection, schedule: Q04DX003 (ip), vehicle: water): 91 % of control
T/C (dose: 400.0 mg/kg/injection, schedule: Q01DX009 (ip), vehicle: water): 100 % of control

O=[n+]1c2ccccc2n([O-])c2ccccc21.[Cl][Ni][Cl]
T/C (dose: 6.25 mg/kg/injection, schedule: Q04DX003 (ip), vehicle: saline with Tween-80): 105 % of control
T/C (dose: 12.5 mg/kg/injection, schedule: Q04DX003 (ip), vehicle: saline with Tween-80): 112 % of control

CC1(C)OC(CI)C(COS(C)(=O)=O)O1 (stereo unspecified)
T/C [4]: 100 % of control
T/C [5]: 91 % of control
T/C [6]: 112 % of control

CCN(CC)CCNC(=O)c1ccc(COc2ccccc2)cc1
T/C (dose: 50.0 mg/kg/injection, schedule: Q01DX005 (ip), vehicle: saline): 97 % of control
T/C (dose: 100.0 mg/kg/injection, schedule: Q01DX005 (ip), vehicle: saline): 111 % of control
T/C (dose: 200.0 mg/kg/injection, schedule: Q01DX005 (ip), vehicle: saline): 97 % of control

CCN(CCS)Cc1ccccc1
T/C [15]: 100 % of control
T/C [16]: 104 % of control
T/C [1]: 109 % of control

CC1CN(Cc2cccc(C#N)c2)CC(C)N1 (stereo unspecified)
T/C (dose: 6.25 mg/kg/injection, schedule: Q01DX009 (ip), vehicle: water): 95 % of control
T/C (dose: 12.5 mg/kg/injection, schedule: Q01DX009 (ip), vehicle: water): 110 % of control
T/C (dose: 25.0 mg/kg/injection, schedule: Q01DX009 (ip), vehicle: water): 101 % of control
T/C (dose: 25.0 mg/kg/injection, schedule: Q04DX003 (ip), vehicle: water): 101 % of control
T/C (dose: 50.0 mg/kg/injection, schedule: Q01DX009 (ip), vehicle: water): 95 % of control
T/C (dose: 50.0 mg/kg/injection, schedule: Q04DX003 (ip), vehicle: water): 100 % of control
T/C [13]: 110 % of control
T/C [14]: 111 % of control

CCCCCCCCCCCCCCCC(=O)N(c1ccc(NC(=O)Nc2ccc(N(C(=O)CCCCCCCCCCCCCCC)C(C)CCCN(CC)CC)cc2)cc1)C(C)CCCN(CC)CC (stereo unspecified)
T/C (dose: 12.5 mg/kg/injection, schedule: Q01DX009 (ip), vehicle: saline with Tween-80): 94 % of control
T/C (dose: 25.0 mg/kg/injection, schedule: Q01DX009 (ip), vehicle: saline with Tween-80): 87 % of control
T/C [4]: 97 % of control
T/C [1]: 93 % of control
T/C [2]: 99 % of control
T/C [3]: 102 % of control

O=C(O)/C=C/c1ccc(Cl)cc1Cl
T/C [4]: 95 % of control
T/C [5]: 90 % of control
T/C [6]: 90 % of control

CCOC(=O)CCN1CCOCC1
T/C [9]: 100 % of control
T/C [10]: 95 % of control
T/C [11]: 100 % of control
T/C [12]: 100 % of control
T/C [17]: 100 % of control
T/C [18]: 108 % of control

c1ccc(-c2cscc2-c2ccccc2)cc1
T/C [7]: 97 % of control
T/C [8]: 93 % of control
T/C (dose: 50.0 mg/kg/injection, schedule: Q04DX003 (ip), vehicle: saline): 108 % of control
T/C [9]: 93 % of control
T/C [10]: 100 % of control
T/C [11]: 101 % of control
T/C [17]: 93 % of control
T/C [18]: 100 % of control

COC(=O)c1ccc(SCCCN2CCOCC2)cc1
T/C [10]: 90 % of control
T/C [12]: 113 % of control

Cc1ccc(S(=O)(=O)N(C)c2ccccc2C(=O)O)cc1
T/C (dose: 100.0 mg/kg/injection, schedule: Q01DX001 (ip), vehicle: saline sonified): 100 % of control
T/C (dose: 200.0 mg/kg/injection, schedule: Q01DX001 (ip), vehicle: saline sonified): 95 % of control
T/C (dose: 400.0 mg/kg/injection, schedule: Q01DX001 (ip), vehicle: saline sonified): 100 % of control

CCCC[P+](c1ccccc1)(c1ccccc1)c1ccccc1
T/C (dose: 0.6 mg/kg/injection, schedule: Q01DX009 (ip), vehicle: saline): 122 % of control
T/C (dose: 1.2 mg/kg/injection, schedule: Q01DX009 (ip), vehicle: saline): 105 % of control
T/C (dose: 2.5 mg/kg/injection, schedule: Q01DX009 (ip), vehicle: saline): 150 % of control
T/C (dose: 5.0 mg/kg/injection, schedule: Q01DX009 (ip), vehicle: saline): 115 % of control
T/C (dose: 40.0 mg/kg/injection, schedule: Q01DX009 (ip), vehicle: saline): 95 % of control

CCS(=O)(=O)C(N=Nc1ccccc1)S(=O)(=O)CC
T/C (dose: 20.0 mg/kg/injection, schedule: Q01DX009 (ip), vehicle: Klucel (hydroxypropylcellulose) (HPC)): 107 % of control
T/C (dose: 40.0 mg/kg/injection, schedule: Q01DX009 (ip), vehicle: Klucel (hydroxypropylcellulose) (HPC)): 101 % of control
T/C (dose: 80.0 mg/kg/injection, schedule: Q01DX009 (ip), vehicle: Klucel (hydroxypropylcellulose) (HPC)): 107 % of control

CCCCN(C(C)(C)C(SSSC(c1ccc(Cl)cc1)C(C)(C)N(CCCC)S(C)(=O)=O)c1ccc(Cl)cc1)S(C)(=O)=O (stereo unspecified)
T/C [15]: 100 % of control
T/C [16]: 100 % of control

Cc1ccc(N2CCNCC2)cc1
T/C (dose: 6.25 mg/kg/injection, schedule: Q04DX003 (ip), vehicle: saline sonified): 95 % of control
T/C (dose: 12.5 mg/kg/injection, schedule: Q04DX003 (ip), vehicle: saline sonified): 100 % of control
T/C (dose: 25.0 mg/kg/injection, schedule: Q04DX003 (ip), vehicle: saline sonified): 100 % of control

O=S(=O)(Nc1ccc(O)c(Cl)c1)c1ccccc1
T/C [5]: 86 % of control
T/C [6]: 100 % of control
T/C (dose: 400.0 mg/kg/injection, schedule: Q01DX009 (ip), vehicle: saline with Tween-80): 104 % of control
